From PubChem BioAssay (NCI)
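Growth conditions: 96-well plates. Treatment: test compound, 48 hours, 5 concentrations. Analysis: linear interpolation between bracketing concentrations; unreached endpoints set to highest concentration. Abbreviation: GI50, concentration required for 50% inhibition of growth. Definition used: TGI = concentration required for complete inhibition of growth.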

Experiments:
Assay in all cases: inhibition of tumour cell growth, NCI panel, 48 h
[1] = system: NCI-H226 lung
[2] = system: NCI-H23 lung
[3] = system: NCI-H460 lung
[4] = system: NCI-H522 lung
[5] = system: NCI/ADR-RES ovarian
[6] = system: OVCAR-3 ovarian
[7] = system: OVCAR-4 ovarian
[8] = system: OVCAR-5 ovarian
[9] = system: OVCAR-8 ovarian
[10] = system: PC-3 prostate
[11] = system: RPMI-8226 leukemia
[12] = system: RXF 393 renal
[13] = system: SF-268 CNS
[14] = system: SF-295 CNS
[15] = system: SF-539 CNS
[16] = system: SK-MEL-2 melanoma
[17] = system: SK-MEL-28 melanoma
[18] = system: SK-MEL-5 melanoma
[19] = system: SK-OV-3 ovarian
[20] = system: SN12C renal
[21] = system: SNB-19 CNS
[22] = system: SNB-75 CNS
[23] = system: SR leukemia
[24] = system: SW-620 colon
[25] = system: T-47D breast
[26] = system: TK-10 renal
[27] = system: U251 CNS
[28] = system: UACC-257 melanoma
[29] = system: UACC-62 melanoma
[30] = system: UO-31 renal

Molecule `O=C(/C=C/Nc1ccc(Cl)cc1)c1ccc2c(c1)Nc1ccccc1S2` has a TGI [1] of 37 µM, a GI50 [2] of 5.34 µM and a TGI [2] of 20.4 µM. The GI50 [3] was 3.77 µM, the TGI [3] was 14.7 µM and the GI50 [4] was 5.1 µM. For the same molecule, the TGI [4] was 23.9 µM, the GI50 [5] was 5.71 µM and the TGI [5] was 20.1 µM. For the same molecule, the GI50 [6] was 11.4 µM, the TGI [6] was 30.5 µM and the GI50 [7] was 2.84 µM. The TGI [7] was 10.4 µM, the GI50 [8] was 15.9 µM and the TGI [8] was 68.2 µM. It also gave a GI50 [9] of 4.38 µM, a TGI [9] of 17.8 µM and a GI50 [10] of 7.55 µM. It also gave a TGI [10] of 25.1 µM, a GI50 [11] of 17.7 µM and a TGI [11] greater than 100 µM. The GI50 [12] was 14.4 µM, the TGI [12] was 30.5 µM and the GI50 [13] was 6.05 µM. The TGI [13] was 25.1 µM, the GI50 [14] was 4.19 µM and the TGI [14] was 17.1 µM. It also gave a GI50 [15] of 8.84 µM, a TGI [15] of 21.5 µM and a GI50 [16] of 13.6 µM. For the same molecule, the TGI [16] was 32.8 µM, the GI50 [17] was 24 µM and the TGI [17] was 79.1 µM. For the same molecule, the GI50 [18] was 12.4 µM, the TGI [18] was 28.4 µM and the GI50 [19] was 12.9 µM. It also gave a TGI [19] of 29.5 µM, a GI50 [20] of 13.7 µM and a TGI [20] of 66.5 µM. The GI50 [21] was 12.2 µM, the TGI [21] was 29.3 µM and the GI50 [22] was 1.96 µM. It also gave a TGI [22] of 6.85 µM, a GI50 [23] of 21.2 µM and a TGI [23] greater than 100 µM. It also gave a GI50 [24] of 10.2 µM, a TGI [24] of 24.7 µM and a GI50 [25] of 12.9 µM. The TGI [25] was 56.4 µM, the GI50 [26] was 13.3 µM and the TGI [26] was 28.8 µM. For the same molecule, the GI50 [27] was 6.88 µM, the TGI [27] was 21.3 µM and the GI50 [28] was 18.7 µM. It also gave a TGI [28] of 59.9 µM, a GI50 [29] of 10.2 µM and a TGI [29] of 25.7 µM. For the same molecule, the GI50 [30] was 16.9 µM and the TGI [30] was 34.3 µM.
